From US12391671B2, “Allosteric EGFR inhibitors and methods of use thereof” (Dana-Farber Cancer Institute, Inc., priority 2019, dated 2025) come the findings set out here.

Structures can show the parent of a compound that is named as a salt. Where two headings read alike, the source gives them in different places.

One assay deals with EGFR L858R/T790M (Homo sapiens (Human), UniProt P00533, L858R/T790M). Put plainly: HTRF-based EGFR biochemical assay (L858R/T790M). To be noted: 100 μM ATP, enzyme 0.02 nM. How it is done:
(§1) Example 25: HTRF-Based EGFR Biochemical Assays
(§2) EGFR biochemical activity measurements were carried out using the homogeneous time-resolved fluorescence (HTRF) assay (Cisbio), inhibitors and DMSO normalizations were first dispensed to empty black low-volume 384-well plates (Corning) with 0300 digital liquid dispenser (HP). All reactions were carried out at room temperature and solutions were added to plates with a Multidrop Combi Reagent Dispenser (ThermoFisher). The reaction mixture (10 μL final volume) contained 1 μM tyrosine kinase peptide-biotin substrate and mutant EGFR in a reaction buffer (50 mM HEPES pH 7.0, 5 mM MgCl2, 1 mM MnCl2, 0.01% BSA, 2 mM TCEP, 0.1 mM NaVO4). Enzyme concentrations were adjusted to accommodate varying kinase activities (L858R 0.1 nM, L858R/T790M 0.02 nM). Enzyme reaction solution (2× concentrations, 5 μL) was added to 384-well plates containing compounds and incubated for 30 mins. Enzyme reactions were initiated with the addition of 5 μL of ATP to a final concentration of 100 μM and reacted for 20 mins. Reactions were quenched with the addition of 10 μL of phospho-tyrosine antibody-Europium(III) cryptate (1-to-180 volume ratio) and Streptavidin-XL665 (46.7 nM) in EDTA-containing detection buffer, then incubated at room temperature for 1 hour, and read with a PHERAstar plate reader (excitation=337 nm, emission=620 nm and 665 nm).
In general terms: Time-resolved FRET reads energy transfer from a long-lived donor to a nearby acceptor.

The test system of assay [1] is EGFR mutant L858R/T790M Ba/F3 cells. The assay is described as follows: Ba/F3 cell proliferation model (Cell Titer Glo), EGFR L858R/T790M. Type of assay: cell-based, murine. As to conditions: 72 hours. From the text:
Example 26: Ba/F3 Cell Proliferation Models
The EGFR mutant L858R and L858R/T790M Ba/F3 cells have been previously described (Zhou, W., et al. Nature 462, 2009, 1070-1074). All cell lines were maintained in RPM 1640 (Cellgro; Mediatech Inc., Herndon. CA) supplemented with 10% FBS, 100 units/mL penicillin, 100 units/mL streptomycin. The EGFR I941R mutation was introduced via site directed mutagenesis using the Quick Change Site-Directed Mutagenesis kit (Stratagene; La Jolla, CA) according to the manufacturer's instructions. All constructs were confirmed by DNA sequencing. The constructs were shuttled into the retroviral vector JP1540 using the Cre-recombination system (Agilent Technologies, Santa Clara, CA). Ba/F3 cells were then infected with retrovirus per standard protocols, as described previously (Zhou, et al, Nature 2009). Stable clones were obtained by selection in puromycin (2 μg/ml).
Growth and inhibition of growth was assessed by the Cell Titer Glo® assay (Promega, Madison, WI) and was performed according to the manufacturer's instructions. The Cell Titer Glo® assay is a luminescence-based method used to determine the number of viable cells based on quantitation of the ATP present, which is directly proportional to the amount of metabolically active cells present. Ba/F3 cells of different EGFR genotypes were exposed to compounds as a single agent or in combination with 1 μg/mL cetuximab for 72 hours and the number of cells used per experiment was determined empirically as has been previously established (Zhou, et al., Nature 2009). All experimental points were set up in triplicates in 384-well plates and all experiments were repeated at least three times. […] The curves were fitted using a non-linear regression model with a sigmoidal dose response.

The next assay concerns the target EGFR L858R (Homo sapiens (Human), UniProt P00533, L858R). The assay is described as follows: HTRF-based EGFR biochemical assay (L858R). To be noted: 100 μM ATP, enzyme 0.1 nM. The protocol:
as §1, §2

Where [2] appears, read: Mus musculus, BaF3, single agent, read-out: Cell IC50 BaF3 EGFR L858R/T790M.
[3] abbreviates: in combination with 1 μg/mL cetuximab, read-out: Cell IC50 BaF3 EGFR L858R/T790M (+cetux.).

EGFR L858R/T790M, sequence (P00533 25-1210 T790M/L858R): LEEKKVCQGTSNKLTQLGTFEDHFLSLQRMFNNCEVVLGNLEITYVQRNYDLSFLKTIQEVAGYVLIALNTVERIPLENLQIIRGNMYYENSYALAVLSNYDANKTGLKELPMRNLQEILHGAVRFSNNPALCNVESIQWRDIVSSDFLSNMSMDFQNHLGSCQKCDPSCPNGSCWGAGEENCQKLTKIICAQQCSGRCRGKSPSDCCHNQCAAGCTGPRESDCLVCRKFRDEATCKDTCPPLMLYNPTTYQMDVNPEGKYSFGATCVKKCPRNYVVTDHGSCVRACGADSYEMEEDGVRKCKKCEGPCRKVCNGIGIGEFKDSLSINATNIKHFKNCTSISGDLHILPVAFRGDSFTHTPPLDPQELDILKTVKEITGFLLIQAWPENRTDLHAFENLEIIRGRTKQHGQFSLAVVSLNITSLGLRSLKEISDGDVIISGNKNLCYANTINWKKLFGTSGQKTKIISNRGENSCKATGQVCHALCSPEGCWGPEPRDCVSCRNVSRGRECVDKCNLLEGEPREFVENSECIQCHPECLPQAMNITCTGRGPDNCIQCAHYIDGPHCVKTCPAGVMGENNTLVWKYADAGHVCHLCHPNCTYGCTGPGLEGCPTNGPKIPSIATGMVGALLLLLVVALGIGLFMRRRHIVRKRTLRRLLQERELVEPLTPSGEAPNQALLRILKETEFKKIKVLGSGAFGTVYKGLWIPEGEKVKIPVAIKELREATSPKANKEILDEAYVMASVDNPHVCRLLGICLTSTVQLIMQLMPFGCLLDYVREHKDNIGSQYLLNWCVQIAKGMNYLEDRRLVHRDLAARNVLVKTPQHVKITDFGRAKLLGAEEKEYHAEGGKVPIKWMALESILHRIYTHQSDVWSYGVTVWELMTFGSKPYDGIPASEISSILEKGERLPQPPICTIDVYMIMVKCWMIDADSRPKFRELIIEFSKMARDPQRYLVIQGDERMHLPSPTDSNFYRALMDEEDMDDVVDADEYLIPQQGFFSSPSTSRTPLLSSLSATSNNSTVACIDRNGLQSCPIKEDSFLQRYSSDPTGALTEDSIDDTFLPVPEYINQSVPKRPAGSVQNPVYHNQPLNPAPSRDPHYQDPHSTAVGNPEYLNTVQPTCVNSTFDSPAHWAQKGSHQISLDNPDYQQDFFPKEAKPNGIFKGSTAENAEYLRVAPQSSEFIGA
EGFR L858R, sequence (P00533 25-1210 L858R): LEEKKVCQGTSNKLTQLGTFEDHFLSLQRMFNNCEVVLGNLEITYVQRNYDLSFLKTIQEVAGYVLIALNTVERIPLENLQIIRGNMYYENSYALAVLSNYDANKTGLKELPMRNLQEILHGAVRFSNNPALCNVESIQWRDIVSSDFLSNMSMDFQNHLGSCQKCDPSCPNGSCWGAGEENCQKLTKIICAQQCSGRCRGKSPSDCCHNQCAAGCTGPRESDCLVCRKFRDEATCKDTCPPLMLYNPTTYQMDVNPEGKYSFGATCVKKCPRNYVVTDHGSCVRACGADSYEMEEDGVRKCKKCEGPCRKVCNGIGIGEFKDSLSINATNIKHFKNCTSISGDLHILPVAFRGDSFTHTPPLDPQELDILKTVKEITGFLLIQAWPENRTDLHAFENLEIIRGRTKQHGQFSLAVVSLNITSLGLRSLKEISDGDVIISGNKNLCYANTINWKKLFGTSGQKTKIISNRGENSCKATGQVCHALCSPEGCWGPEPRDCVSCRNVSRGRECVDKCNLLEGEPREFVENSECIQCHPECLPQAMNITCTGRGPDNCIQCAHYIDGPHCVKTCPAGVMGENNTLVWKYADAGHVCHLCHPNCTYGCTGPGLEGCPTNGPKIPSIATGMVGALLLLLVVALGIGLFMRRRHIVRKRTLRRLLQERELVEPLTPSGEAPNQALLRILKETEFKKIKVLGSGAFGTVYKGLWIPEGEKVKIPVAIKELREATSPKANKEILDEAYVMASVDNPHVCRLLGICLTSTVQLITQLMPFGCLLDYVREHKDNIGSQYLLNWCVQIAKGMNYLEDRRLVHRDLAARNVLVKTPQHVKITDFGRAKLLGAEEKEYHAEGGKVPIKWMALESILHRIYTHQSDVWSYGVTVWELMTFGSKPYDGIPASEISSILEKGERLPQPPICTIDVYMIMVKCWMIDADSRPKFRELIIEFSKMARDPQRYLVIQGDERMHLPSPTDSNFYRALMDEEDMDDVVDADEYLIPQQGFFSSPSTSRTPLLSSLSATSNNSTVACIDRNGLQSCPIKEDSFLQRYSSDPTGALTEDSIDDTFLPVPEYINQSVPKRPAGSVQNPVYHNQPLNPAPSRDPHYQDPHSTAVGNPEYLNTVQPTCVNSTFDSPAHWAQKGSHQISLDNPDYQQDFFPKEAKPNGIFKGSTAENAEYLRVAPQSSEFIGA

Take `CN1CCC(c2ccc(-c3ccc4c(c3)C(=O)N([C@H](c3nc5ccccc5[nH]3)c3cc(F)ccc3O)C4)cc2)CC1` (single isomer, unassigned) [Compound 023]: the IC50 against EGFR L858R/T790M is 1 nM; in assay [1] (setting [2]), 950 nM; in assay [1] (setting [3]) it was 20 nM; against EGFR L858R, 6 nM.
Consider `CN1CCC(c2ccc(-c3ccc4ncn(C(c5nc6ccccc6[nH]5)c5cc(F)ccc5O)c(=O)c4c3)cc2F)CC1` (centres unmarked) [Compound 001, 3-[1H-Benzimidazol-2-yl-(5-fluoro-2-hydroxy-phenyl)methyl]-6-[3-fluoro-4-(1-methyl-4-piperidyl)phenyl]quinazolin-4-one; hydrochloride], for which the IC50 on EGFR L858R/T790M turned out to be 0.4 nM; in assay [1] (setting [2]), 320 nM; in assay [1] (setting [3]) it was 9 nM; at EGFR L858R it was 1 nM.
Take `CN1CCC(c2ccc(-c3ccc4ncn(C(c5ccccc5)c5nc6ccccc6[nH]5)c(=O)c4c3)cc2)CC1` (centres unmarked) [Compound 002, 3-[1H-Benzimidazol-2-yl(phenyl)methyl]-6-[4-(1-methyl-4-piperidyl)phenyl]quinazolin-4-one]: the IC50 was determined as 4 nM against EGFR L858R/T790M, 4450 nM in assay [1] (setting [2]), 140 nM in assay [1] (setting [3]) and 17 nM on EGFR L858R.
As for `CN1CCC(c2ccc(-c3ccc4ncn(C(c5ccccc5)c5nc6ccccc6[nH]5)c(=O)c4c3F)cc2)CC1` (centres unmarked) [Compound 003, 3-((1H-Benzo[d]imidazol-2-yl)(phenyl)methyl)-5-fluoro-6-(4-(1-methylpiperidin-4-yl)phenyl)quinazolin-4(3H)-one 2,2,2-trifluoroacetate], the IC50 against EGFR L858R/T790M was determined as 2 nM; in assay [1] (setting [2]) it was 1400 nM; in assay [1] (setting [3]), 50 nM; on EGFR L858R, 9 nM.
`CN1CCC(c2ccc(-c3ccc4ncn(C(c5cccc(F)c5)c5nc6ccccc6[nH]5)c(=O)c4c3F)cc2)CC1` (centres unmarked) [Compound 005, 3-((1H-Benzo[d]imidazol-2-yl)(3-fluorophenyl)methyl)-5-fluoro-6-(4-(1-methylpiperidin-4-yl)phenyl)-quinazolin-4(3H)-one 2,2,2-trifluoroacetate]: the IC50 against EGFR L858R/T790M turned out to be 1 nM; in assay [1] (setting [2]) it was 1220 nM; in assay [1] (setting [3]), 20 nM; on EGFR L858R, 8 nM.
Take `CN1CCC(c2ccc(-c3ccc4ncn(C(c5nc6ccccc6[nH]5)c5cc(F)ccc5O)c(=O)c4c3F)cc2F)CC1` (centres unmarked) [Compound 007, 3-[1H-benzimidazol-2-yl-(5-fluoro-2-hydroxy-phenyl)methyl]-5-fluoro-6-[3-fluoro-4-(1-methyl-4-piperidyl)phenyl]quinazolin-4-one; hydrochloride]: the IC50 against EGFR L858R/T790M was 0.4 nM; in assay [1] (setting [2]) it was 520 nM; in assay [1] (setting [3]) it was 9 nM; on EGFR L858R, 1 nM.
`CN1CCC(c2ccc(-c3ccc4ncn(C(c5cccc(F)c5)c5nc6ccccc6[nH]5)c(=O)c4n3)cc2)CC1` (centres unmarked) [Compound 008, 3-((1H-Benzo[d]imidazol-2-yl)(3-fluorophenyl)methyl)-6-(4-(1-methylpiperidin-4-yl)phenyl)-pyrido[3,2-d]pyrimidin-4(3H)-one 2,2,2-trifluoroacetate]: the IC50 on EGFR L858R/T790M came out at 5 nM; in assay [1] (setting [2]), 5410 nM; in assay [1] (setting [3]) it was 170 nM; against EGFR L858R, 42 nM.
As to `CN1CCC(c2ccc(-c3cnc4c(c3)C(=O)N(C(c3nc5ccccc5[nH]3)c3cc(F)ccc3O)C4)cc2)CC1` (centres unmarked) [Compound 010, 6-[1H-Benzimidazol-2-yl-(5-fluoro-2-hydroxy-phenyl)methyl]-3-[4-(1-methyl-4-piperidyl)phenyl]-7H-pyrrolo[3,4-b]pyridin-5-one], the IC50 against EGFR L858R/T790M came to 4 nM; in assay [1] (setting [2]), 1930 nM; in assay [1] (setting [3]), 20 nM; on EGFR L858R, 12 nM.
